The text below walks through data of US11324720B2, “Antiproliferative DNA polymerase inhibitor” (NEW YORK MEDICAL COLLEGE, priority 2018, dated 2022).

Data set [1] has as its target T1, Pol δ (Homo sapiens, UniProt P28340).
T1 construct: made in house; host or cells: insect cells (Pol δ); E. coli (PCNA)
Kind of data set: poly(dA)/oligo(dT) DNA polymerase assay. Format: biochemical. The source says:
In order to validate the predicted inhibitory properties of zelpolib, we used the well-established DNA polymerase assay, poly(dA)/oligo(dT) method^1,16, to quantify the inhibition constants. In this assay, a poly(dA) template (up to 4 kilobases) was randomly primed with oligo(dT) primers (40 mer). In the presence of proliferating cell nuclear antigen (PCNA), Pol δ will initiate the elongation of oligo dT primer with the incorporation of radio-labeled deoxythymidine (^3H). The polymerase activity can then be precisely quantified by counting the isotope incorporated.
A model structure of the catalytic domain of human Pol δ was generated based on the structure of yeast pol δ^72 by SWISSPDB^73. The primary sequences of both proteins are conserved and the active sites structures were virtually identical between the model structure and that of yeast pol δ. […] Subsequently, the 300 compounds with the highest scores were selected and analyzed by Pymol. […]
Three different assays are used to analyze DNA polymerase activities and the impact of zelpolib. The poly(dA)/oligo(dT) assay^1,16 were used for precisely quantification as reported. […] [3H]dTMP incorporation was read on liquid scintillation counter. […]

Data set [2] concerns the target T1, Pol δ. Kind of data set: single nucleotide primer extension (incorporation) assay. Format: biochemical. The note with it: single dNTP present. How it is done: In our in silico screening, the active site cavity was created by the removal of dCTP in the original crystal structure. […] Therefore, we assayed the inhibition patterns of 4 individual dNTP molecules in a single nucleotide incorporation assays. In this assay, only one nucleotide is present for the primer extension for the next appropriate base paring to the template.
Briefly, the standard reaction mixture contained 5 μM dNTP, 5 mM MgCl2, 50 mM Tris-HCl (pH 7.5), 2 mM dithiothreitol, […] BSA, 50 mM NaCl, 20 nM primer/template, 50 nM PCNA, 10 nM Pol δ and variable concentrations of inhibitors. The reactions were initiated by addition of dNTPs and MgCl2. Reaction was allowed to proceed at 25° C. for 2 min before addition of stop buffer (95% formamide/25 mM EDTA). The products were separated on a 20% polyacrylamide gels urea. Products was visualized on phosphorimager and quantitated using Image-J software. For single nucleotide primer extension assay^18, the protocol is identical to primer extension assay except a single dNTP is used.

Data set [3] concerns BxPC-3 cells. Kind of data set: Cell proliferation assay, MTT method. The class given is cell-based, human. From the text:
(§1) DNA replication precedes cell division. Thus, cancer cells cannot divide and proliferate without successful chromosomal duplication. A DNA polymerase inhibitor should inhibit cancer cell proliferation. We characterized the antiproliferative properties of zelpolib on a number of cell lines originated from pancreatic cancer (BxPC-3) and breast cancer (MCF7 for ER+ breast cancer). In addition, we developed a cisplatin resistant subline of a pancreatic cancer cell line, R-BxPC3 for our studies as well. We used the MTT method^25 for analyzing cell proliferation. This assay is based on the reduction of 3-(4,5-dimethylthiazol-2-yl)-2,5-diphenyltetrazolium bromide by live cells to an insoluble formazon, which were subsequently dissolved in DMSO and quantified by UV absorbance. Therefore, the cell number is proportional to the optical density in the established linear region. […] The plateau phenomena indicate inhibition of proliferation without cell killing, similar to these observed from hydroxyurea^26, aphidicolin^27, and to a certain extent, methotrexate treatments^28. Direct inhibition of DNA polymerase activity provides a unique mechanism that is not employed by any of the current cancer therapeutics. We selected a number of most widely prescribed chemotherapeutics with distinct mechanisms to compare their antiproliferative potential in the 2 cancer cell lines. We included alkylating agent cisplatin, antimetabolites methotrexate and 5-flourouracil (5FU)^29-31. […] Whereas the comparison with cisplatin is biphasic.
(§2) Human cancer cells (5×10^3-7.5×10^3) were initially seeded in 96-well plates (Cellstar) containing 0.2 ml media per well. After 24 hrs, these cells were treated with variable concentrations drug combinations for 48-72 hrs. Subsequently, 4,5-dimethylthiazol-2-yl-2,5-diphenyltetrazolium bromide (MTT) (20 μl of 5 mg/ml) was added to each well for 3 hrs. Formazan crystals were then dissolved in 150 μl DMSO and optical density was read at 490 nm^25. All experiments were performed in triplicates. Results were analyzed by GraphPad Prism. Data represent mean value±SEM for each concentration of inhibitor combinations.
(In general: Tetrazolium assays rely on reduction of a dye to a coloured formazan, in cell work by metabolically active cells.)

The test system of data set [4] is MCF7 cells. Briefly: Cell proliferation assay, MTT method. The class given is cell-based, human.
Text: as §1, §2

Each structure is given as a SMILES string.

For orientation: Ki means a measure of affinity in units of concentration, obtained from inhibition or displacement.

T1 sequence (P28340 whole entry): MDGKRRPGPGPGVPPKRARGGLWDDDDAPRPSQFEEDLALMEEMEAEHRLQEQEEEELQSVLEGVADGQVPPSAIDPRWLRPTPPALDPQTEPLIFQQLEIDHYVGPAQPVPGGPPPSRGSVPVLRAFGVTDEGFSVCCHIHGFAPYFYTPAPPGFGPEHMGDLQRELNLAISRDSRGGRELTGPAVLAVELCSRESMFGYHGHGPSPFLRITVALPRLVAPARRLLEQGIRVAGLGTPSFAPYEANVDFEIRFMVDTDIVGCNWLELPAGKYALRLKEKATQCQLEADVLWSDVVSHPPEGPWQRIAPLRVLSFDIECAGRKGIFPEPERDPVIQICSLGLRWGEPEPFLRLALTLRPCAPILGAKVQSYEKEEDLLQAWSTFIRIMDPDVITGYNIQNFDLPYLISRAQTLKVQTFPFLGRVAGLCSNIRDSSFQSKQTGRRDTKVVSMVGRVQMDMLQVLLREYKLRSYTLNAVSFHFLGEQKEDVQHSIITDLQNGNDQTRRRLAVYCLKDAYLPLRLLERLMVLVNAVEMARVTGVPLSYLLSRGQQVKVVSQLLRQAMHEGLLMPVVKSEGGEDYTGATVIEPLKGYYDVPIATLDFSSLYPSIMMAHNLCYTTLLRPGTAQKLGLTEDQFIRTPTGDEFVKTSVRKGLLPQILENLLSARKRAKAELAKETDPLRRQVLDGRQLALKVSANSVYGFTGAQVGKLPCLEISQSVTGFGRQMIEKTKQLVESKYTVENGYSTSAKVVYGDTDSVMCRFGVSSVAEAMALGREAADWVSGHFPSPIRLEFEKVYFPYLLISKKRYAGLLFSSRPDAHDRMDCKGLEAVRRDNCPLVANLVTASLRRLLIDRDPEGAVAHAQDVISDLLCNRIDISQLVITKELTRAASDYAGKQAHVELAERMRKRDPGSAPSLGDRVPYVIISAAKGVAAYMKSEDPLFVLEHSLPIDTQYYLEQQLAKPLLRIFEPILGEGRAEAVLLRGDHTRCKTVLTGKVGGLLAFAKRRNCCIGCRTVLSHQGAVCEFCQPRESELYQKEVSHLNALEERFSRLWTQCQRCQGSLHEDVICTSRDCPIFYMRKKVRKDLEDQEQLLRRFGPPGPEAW
T1 sequence (P49005 whole entry partner): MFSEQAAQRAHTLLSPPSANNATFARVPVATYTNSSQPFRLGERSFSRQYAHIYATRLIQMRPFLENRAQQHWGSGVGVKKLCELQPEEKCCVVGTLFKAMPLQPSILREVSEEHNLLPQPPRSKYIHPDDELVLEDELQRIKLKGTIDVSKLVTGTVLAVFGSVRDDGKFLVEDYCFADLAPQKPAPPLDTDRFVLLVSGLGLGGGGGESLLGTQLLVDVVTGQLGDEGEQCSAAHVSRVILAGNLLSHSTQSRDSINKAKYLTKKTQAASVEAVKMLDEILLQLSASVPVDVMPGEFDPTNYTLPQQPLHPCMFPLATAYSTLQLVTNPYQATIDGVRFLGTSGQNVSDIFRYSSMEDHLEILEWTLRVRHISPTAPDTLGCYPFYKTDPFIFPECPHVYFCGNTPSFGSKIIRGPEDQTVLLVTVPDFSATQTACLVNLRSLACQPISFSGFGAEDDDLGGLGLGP
T1 sequence (Q15054 whole entry partner): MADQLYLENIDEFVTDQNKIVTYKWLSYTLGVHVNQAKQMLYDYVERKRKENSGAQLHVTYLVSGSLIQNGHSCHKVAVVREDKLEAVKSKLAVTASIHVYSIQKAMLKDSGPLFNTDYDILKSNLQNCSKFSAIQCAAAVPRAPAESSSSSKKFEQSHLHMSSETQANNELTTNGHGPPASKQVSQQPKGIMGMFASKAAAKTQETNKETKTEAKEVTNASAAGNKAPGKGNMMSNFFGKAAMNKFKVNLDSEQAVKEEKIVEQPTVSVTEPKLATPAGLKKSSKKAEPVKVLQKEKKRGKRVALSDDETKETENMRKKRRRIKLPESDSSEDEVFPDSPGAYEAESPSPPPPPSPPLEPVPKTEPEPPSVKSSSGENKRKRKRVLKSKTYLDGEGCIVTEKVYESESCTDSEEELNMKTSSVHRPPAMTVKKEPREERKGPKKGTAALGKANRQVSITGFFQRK
T1 sequence (P12004 whole entry partner): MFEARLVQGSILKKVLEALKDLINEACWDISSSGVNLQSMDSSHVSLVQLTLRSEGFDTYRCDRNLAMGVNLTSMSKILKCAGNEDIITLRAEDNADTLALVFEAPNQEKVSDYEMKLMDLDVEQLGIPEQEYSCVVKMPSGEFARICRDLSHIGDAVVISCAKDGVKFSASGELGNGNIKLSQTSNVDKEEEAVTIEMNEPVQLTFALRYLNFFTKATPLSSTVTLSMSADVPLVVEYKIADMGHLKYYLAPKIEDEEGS

`COC(=O)c1cc(-c2ccccc2)sc1NC(=S)NNC(=O)CCc1ccc(O)c(O)c1` [zelpolib]: in data set [1] (assayed at 10 μM), the “inhibition of Pol δ activity at 10 μM” value is “significant inhibition”. For the same molecule, the Ki in data set [1] (non-competitive against dTTP, with PCNA, R^2=0.99, read-out: inhibition constant Ki of Pol δ activity) came to 4.3 µM. In data set [2], the “inhibition of incorporation of individual dNTPs (dATP, dGTP, dCTP, dTTP)” value is given as “inhibited the incorporation of all four nucleotides to similar extents in a noncompetitive manner”. In addition, in data set [3] (BxPC-3, MTT), the “antiproliferative activity compared with cisplatin” value was “superior to cisplatin up to 10 μM”; the “antiproliferative activity compared with methotrexate and 5-FU” value was “superior to methotrexate and 5-FU at all concentrations”; the “concentration at which antiproliferative effect reaches a plateau” value was “about 5 μM”. The cytotoxicity entry in data set [3] (zelpolib alone, cell lines not specified) is listed as “minimal cell cytotoxicity”. Besides, the “concentration at which antiproliferative effect reaches a plateau” value in data set [4] was “about 5 μM”. In data set [4] (72 h), the “antiproliferative activity compared with methotrexate and 5-FU” value was “superior to methotrexate and 5-FU across the concentration range”; the “antiproliferative activity, zelpolib versus cisplatin” value is “at least as effective as cisplatin in inhibiting MCF7 cell growth up to 5 μM”.
